How the values were obtained:
[1] = Human crossover pharmacokinetic interaction study of WM (Tamiflu) alone or with CMF1; assay type: in vivo, human (Chinese male healthy volunteers); conditions: for AUC(0-t): AUC0–12 h; for Cmax: C max
Description: Normal healthy Chinese male subjects aged 20–45 years were recruited in this study. […] The study was conducted using a single-center, randomized, open-labeled, multiple dose (5 days), two-treatment, two-period, two-sequence crossover design. […] Each subject underwent two treatment sessions (periods I and II), and each session consists of 5-day treatment (twice daily for day 1 to day 4, morning dose for day 5). The two treatment sessions were separated by a washout period of 2 weeks. 250 mL water was used for WM (Tamiflu capsule, 75 mg per dose) administration. […] Drinking water was not allowed from 1 h predose to 1 h postdose except that needed for drug dosing. […] All blood and urine collection was taken on day 5 of each treatment session. […] Blood samples were collected from a catheter, which was placed in the forearm vein before dosing. At the specified time, 5 mL of blood was drawn (except for 0 time and at 2 h which was 10 mL each for additional antiviral activity determination) and stored in vacuette lithium heparin tubes (Greiner Bio-One). […] Plasma samples were collected after centrifugation and then stored at −80°C until assay. Urine was also collected (and the volume was recorded) at pre-dose, 0–4, 4–8, and 8–12 h intervals. […] After mixing and centrifugation, the supernatant was loaded in prewashed Oasis MCX cartridge (1 cc, 30 mg, Waters) and the cartridge was rinsed subsequently with 1% formic acid, water, and methanol followed by vacuum dried for 20 min. The analytes were then eluted with 1 mL of 1% ammonia in methanol. The eluting solvent was dried by a vacuum concentrator and the residue was reconstituted with 200 μL of 0.1% formic acid : methanol (1 : 1 v/v) prior to HPLC/MS/MS analysis using an ABI 2000 Q-Trap triple quadrupole mass spectrometer (Applied Biosystems) coupled with PE-200 series micropumps and autosampler (Perkin-Elmer). […] In human study, trough concentration (C trough) was defined as the minimum concentration obtained and was obtained at 12 h post-dose. […] In human studies, the comparison of WM + CMF1 to WM alone treatments was evaluated using a 90% confidence intervals (90% CI) approach (USFDA guideline, Drug Interactions Studies, September 2006). […] The statistical model included terms describing the effects attributable to sequence, subject (nested in sequence), period, and treatment (formulation). […] Difference in the median T max between both treatments was evaluated using Wilcoxon signed-rank test. For comparison of the human antiviral activities, one-way analysis of variance in conjunction with post hoc Turkey's range test was performed.

[2] = Rat pharmacokinetics of OA and OC in plasma and urine after oral OA alone or with CMF1; assay type: in vivo, Sprague-Dawley rats; conditions: in vivo, po, 30 mg/kg
Description: The study was approved by the Animal Ethics Committee of The Chinese University of Hong Kong. Male Sprague-Dawley rats (230–250 g) were utilized and supplied by the Laboratory Animal Service Center at The Chinese University of Hong Kong. The rats were housed under standard conditions of temperature, humidity, and light and randomly divided into six groups with 10–12 rats in each group. […] The dose of 1.95 g/kg CMF1 is calculated based on the human dose recommended by the Chinese physicians and a doubled dose of CMF1 at […] is also used in the current study due to the potential large dosing range for Chinese medicine adopted in the practice. […]
For dosing, OA (4 mg/mL) was freshly prepared by dissolving it in water and orally given to rats by gavage, bid (twice daily) for 4 days (9:00am and 6:00pm for each day), and CMF1 was also freshly suspended in water and then orally given to rats 2 h later of OA dosing (11:00 am and 8:00 pm for each day).
For Groups of 1 to 3, a surgery for jugular vein cannulation was performed 1 h after CMF1 second dosing on day 4. A polyethylene catheter (0.50 mm ID, 1.00 mm OD, Portex Limited, Hythe, Kent, England) was cannulated into the right jugular vein under anesthesia. After surgery, the rat was placed in separated metabolic cage and allowed to recover and fasted overnight with free access to water. In the morning of day 5, blood samples (0.2 mL each) of the rats in the Groups 1–3 were collected via the catheter at 0, 15, 30, 60, 90, 120, 180, 240, 360, and 480 min after dosing of OA. After which, 0.2 mL of normal saline containing 20 units/mL of heparin was then injected into the catheter to flush the catheter. The collected blood samples were immediately placed in heparinized tubes containing dichlorvos (5 μL of 8 mg/mL dichlorvos in normal saline) for inhibition of carboxylesterase, followed by centrifugation to obtain the plasma and stored at −80°C. Urine samples were collected over 8 h postdose and combined with water used for rinsing the metabolic cage, further diluted to 200 mL, and then stored at −80°C until assay.
The rat/human plasma and urine samples were treated and analyzed by an LC/MS/MS system as previously described. Briefly, 200 μL plasma/urine samples was mixed with cephalexin hydrate (internal standard, IS) working solution (final 2 μg/mL) and acidified with 1 mL of 10% perchloric acid in water (if necessary, dilution with blank human urine was required for urine samples). After mixing and centrifugation, the supernatant was loaded in prewashed Oasis MCX cartridge (1 cc, 30 mg, Waters) and the cartridge was rinsed subsequently with 1% formic acid, water, and methanol followed by vacuum dried for 20 min. The analytes were then eluted with 1 mL of 1% ammonia in methanol. The eluting solvent was dried by a vacuum concentrator and the residue was reconstituted with 200 μL of 0.1% formic acid : methanol (1 : 1 v/v) prior to HPLC/MS/MS analysis using an ABI 2000 Q-Trap triple quadrupole mass spectrometer (Applied Biosystems) coupled with PE-200 series micropumps and autosampler (Perkin-Elmer). The chromatographic separation was achieved by using a Nova-Pak CN HP column (75 × 3.9 mm i.d., 4 μm particle size, Waters) and the HPLC solvent system consisted of methanol (A) and 0.1% formic acid in water (B), with 50% A (for plasma samples) or 60% A (for urine samples) at 1 mL/min. The temperatures of autosampler and the analytical column were set at 4°C and ambient, respectively, and the sample injection volume was 20 μL. Prior to the mass spectrometric system, 60% of the LC eluent was split off and only 40% of the eluent was introduced into the ESI source.
The plasma/urine OA and OC concentrations versus time profiles were analyzed using WinNonlin software standard edition version 2.1 (Pharsight Corporation). […] In human study, trough concentration (C trough) was defined as the minimum concentration obtained and was obtained at 12 h post-dose. […]

[3] = male, human, in vivo, geometric mean

Question: With `CCOC(=O)C1=C[C@@H](OC(CC)CC)[C@H](NC(C)=O)[C@@H](N)C1` [OA, Oseltamivir] as the compound, how does the C max ([1]; human, day 5, WM + CMF1, n = 14, arithmetic mean ± SD) read?
Answer: 0.0513 ± 0.0174 µg/mL

Question: What about the tolerability ([1]; in vivo) of the same compound?
Answer: well tolerated

Question: What about the “12 h Cum. amt. in urine” value ([1]; male, human, in vivo) of the same compound?
Answer: 2883 ± 985 µg

Question: And the “12 h Cum. amt. in urine, geometric mean” value ([1]; male, human, in vivo)?
Answer: 2745.53 µg

Question: And the “C max for WM + CMF1 treatment lower than that from WM alone” value ([1]; male, human, in vivo)?
Answer: 21.81%

Question: What about the “C max when OA was co-administered with CMF1, relative to WM alone” value ([1]; male, human, in vivo) of the same compound?
Answer: ~ 78%

Question: And the “time to reach peak maximum in plasma” value ([1]; male, human, in vivo)?
Answer: 0.5 to 1 h

Question: What about the AUC(0-t) ([1]; male, human, in vivo) of the same compound?
Answer: 0.134 ± 0.0411 µg·h/mL

Question: And the AUC(0-t) [1, 3]?
Answer: 0.13 µg·h/mL

Question: And the Cmax ([1]; male, human, in vivo)?
Answer: 0.0679 ± 0.0271 µg/mL

Question: And the Cmax [1, 3]?
Answer: 0.0624 µg/mL

Question: And the CL renal ([1]; male, human, in vivo, Renal clearance)?
Answer: 368 mL/min

Question: And the half-life ([1]; male, human, in vivo, T 1/2 (terminal half-life))?
Answer: 1.98 ± 0.4 h

Question: What about the Tmax ([1]; male, human, in vivo, T max) of the same compound?
Answer: 0.61 ± 0.21 h

Question: And the CL renal ([1]; male, human, in vivo, renal clearance)?
Answer: ~367 mL/min

Question: What about the “AUC0–8 h” value [2] of the same compound?
Answer: 199.85 ± 56.88 μg∗min/mL

Question: What about the “AUC0–inf” value [2] of the same compound?
Answer: 209.14 ± 60.23 μg∗min/mL

Question: What about the “V d, λz/F” value [2] of the same compound?
Answer: 23.39 ± 8.17 (L/k)g

Question: And the Cmax ([2]; male, Sprague-Dawley, C max)?
Answer: 1.16 ± 0.3 µg/mL

Question: What about the CL renal ([2]; male, Sprague-Dawley, CL renal) of the same compound?
Answer: 6.1 ± 1.32 mL/min

Question: And the CL/F ([2]; male, Sprague-Dawley, CL/F)?
Answer: 9.5 ± 3.58 L/h/kg

Question: What about the Tmax ([2]; male, Sprague-Dawley, T max) of the same compound?
Answer: 0.55 h

Question: What about the half-life ([2]; male, Sprague-Dawley, t 1/2, λz) of the same compound?
Answer: 1.72 ± 0.146 h

Source: PMC3912631, “Bench to Bed Evidences for Pharmacokinetic and Pharmacodynamic Interactions Involving Oseltamivir and Chinese Medicine” (Evidence-based Complementary and Alternative Medicine : eCAM, 2014)
